From article PMC6979384, “Characterization of the plant homeodomain (PHD) reader family for their histone tail interactions” (Epigenetics & Chromatin, 2020)

Key:
Experiment in all cases: Histone peptide microarray
Type in all cases: binding, human
AIRE (PP) = conditions: GST-tagged AIRE (PP); histone peptide array; arrays performed twice, n of 4
Description: (§1) To more comprehensively define the histone interactions of the 31 PHD readers identified from the domain microarray analyses, we probed each on an alternate microarray platform containing a library of 293 synthetic histone peptides with single or combinatorial PTMs (Additional file 2: Figure S4 and Additional file 3: Table S2).
(§2) The 31 GST-tagged PHD readers identified in the PHD finger domain array were expressed and purified as previously. Histone peptide arrays and peptide pulldown assays were conducted as recently described (specifically, the optimized protocol from Petell et al. for the former).
(§3) Supplementary file 13072_2020_328_MOESM3_ESM.xlsx: Additional file 3: Table S2. […] Excel Tab Peptide List is a compiled list of the entire 293 histone peptide library with amino acid sequence ranges. […] Each number corresponds to the peptide number designated in Peptide List. Excel Tab Average Signals is a compiled set of binding data: chromatin reader at 0.5 μM vs. entire 293 peptide library. Data is presented as the average and standard deviation of 4 replicates. The average signals are colored to indicate signal intensity with green being strong and white being weak/low. […] Key: red= stronger relative binding; blue = weaker relative binding. Excel Tab Array info summary is a table summarizing the domains, sequence coverage, array signal range, and noise for each of the GST-tagged readers assayed on the peptide microarrays.

BAZ2B = conditions: GST-tagged BAZ2B; histone peptide array; arrays performed twice, n of 4
Description: as §1, §2, §3

BPTF (PB) = conditions: GST-tagged BPTF (PB = PHD + Bromodomain); histone peptide array; arrays performed twice, n of 4
Description: as §1, §2, §3

CHD4 (PPCC) = conditions: GST-tagged CHD4 (PPCC = Dual PHD + Dual Chromodomain); histone peptide array; arrays performed twice, n of 4
Description: as §1, §2, §3

CHD5 (PCC) = conditions: GST-tagged CHD5 (PCC = PHD + Dual Chromodomain); histone peptide array; arrays performed twice, n of 4
Description: as §1, §2, §3

CHD5 (PPCC) = conditions: GST-tagged CHD5 (PPCC = Dual PHD + Dual Chromodomain); histone peptide array; arrays performed twice, n of 4
Description: as §1, §2, §3

DIDO1 = conditions: GST-tagged DIDO1; histone peptide array; arrays performed twice, n of 4
Description: as §1, §2, §3

DPF2 (PPC2W2) = conditions: GST-tagged DPF2 (PPC2W2 = Dual PHD + C2W2-type Zn-finger); histone peptide array; arrays performed twice, n of 4
Description: as §1, §2, §3

ING1 = conditions: GST-tagged ING1; histone peptide array; arrays performed twice, n of 4
Description: as §1, §2, §3

ING2 = conditions: GST-tagged ING2; histone peptide array; arrays performed twice, n of 4
Description: as §1, §2, §3

ING3 = conditions: GST-tagged ING3; histone peptide array; arrays performed twice, n of 4
Description: as §1, §2, §3

ING4 = conditions: GST-tagged ING4; histone peptide array; arrays performed twice, n of 4
Description: as §1, §2, §3

ING5 = conditions: GST-tagged ING5; histone peptide array; arrays performed twice, n of 4
Description: as §1, §2, §3

KDM4C (TTP) = conditions: GST-tagged KDM4C (TTP = Tandem Tudor domain + PHD); histone peptide array; arrays performed twice, n of 4
Description: as §1, §2, §3

KDM5A (1) = conditions: GST-tagged KDM5A (1); histone peptide array; arrays performed twice, n of 4
Description: as §1, §2, §3

KDM5A (3) = conditions: GST-tagged KDM5A (3); histone peptide array; arrays performed twice, n of 4
Description: as §1, §2, §3

KDM5B (1) = conditions: GST-tagged KDM5B (1); histone peptide array; arrays performed twice, n of 4
Description: as §1, §2, §3

KDM5B (3) = conditions: GST-tagged KDM5B (3); histone peptide array; arrays performed twice, n of 4
Description: as §1, §2, §3

KDM7A = conditions: GST-tagged KDM7A; histone peptide array; arrays performed twice, n of 4
Description: as §1, §2, §3

MLL5 = conditions: GST-tagged MLL5; histone peptide array; arrays performed twice, n of 4
Description: as §1, §2, §3

MORC3 (CW) = conditions: GST-tagged MORC3 (CW = CW-type Zn-finger); histone peptide array; arrays performed twice, n of 4
Description: as §1, §2, §3

PHF13 = conditions: GST-tagged PHF13; histone peptide array; arrays performed twice, n of 4
Description: as §1, §2, §3

PHF21A = conditions: GST-tagged PHF21A; histone peptide array; arrays performed twice, n of 4
Description: as §1, §2, §3

PHF23 = conditions: GST-tagged PHF23; histone peptide array; arrays performed twice, n of 4
Description: as §1, §2, §3

PHF2 = conditions: GST-tagged PHF2; histone peptide array; arrays performed twice, n of 4
Description: as §1, §2, §3

PHF8 = conditions: GST-tagged PHF8; histone peptide array; arrays performed twice, n of 4
Description: as §1, §2, §3

PHRF1 (RP) = conditions: GST-tagged PHRF1 (RP); histone peptide array; arrays performed twice, n of 4
Description: as §1, §2, §3

RAG2 = conditions: GST-tagged RAG2; histone peptide array; arrays performed twice, n of 4
Description: as §1, §2, §3

SP140L = conditions: GST-tagged SP140L; histone peptide array; arrays performed twice, n of 4
Description: as §1, §2, §3

TAF3 = conditions: GST-tagged TAF3; histone peptide array; arrays performed twice, n of 4
Description: as §1, §2, §3

TRIM66 (PB) = conditions: GST-tagged TRIM66 (PB = PHD + Bromodomain); histone peptide array; arrays performed twice, n of 4
Description: as §1, §2, §3

Substance	Array Heatmap signal, AIRE (PP) (AIRE (PP))	Array Heatmap signal, BAZ2B (BAZ2B)	Array Heatmap signal, BPTF (PB) (BPTF (PB))	Array Heatmap signal, CHD4 (PPCC) (CHD4 (PPCC))	Array Heatmap signal, CHD5 (PCC) (CHD5 (PCC))	Array Heatmap signal, CHD5 (PPCC) (CHD5 (PPCC))	Array Heatmap signal, DIDO1 (DIDO1)	Array Heatmap signal, DPF2 (PPC2W2) (DPF2 (PPC2W2))	Array Heatmap signal, ING1 (ING1)	Array Heatmap signal, ING2 (ING2)	Array Heatmap signal, ING3 (ING3)	Array Heatmap signal, ING4 (ING4)	Array Heatmap signal, ING5 (ING5)	Array Heatmap signal, KDM4C (TTP) (KDM4C (TTP))	Array Heatmap signal, KDM5A (1) (KDM5A (1))	Array Heatmap signal, KDM5A (3) (KDM5A (3))	Array Heatmap signal, KDM5B (1) (KDM5B (1))	Array Heatmap signal, KDM5B (3) (KDM5B (3))	Array Heatmap signal, KDM7A (KDM7A)	Array Heatmap signal, MLL5 (MLL5)	also measured
H3R2me1 + K4me3 + K9ac + K14ac + K18ac: H3 1-20	0.4342	0.5242	0.497	0.5338	0.7637	0.5534	0.9369	0.7016	0.6321	0.7542	0.5459	0.4735	0.3861	0.6022	0.4772	1	0.6999	0.6033	0.4977	0.7798	Array Heatmap signal, MORC3 (CW) (MORC3 (CW)): 0.7963; Array Heatmap signal, PHF13 (PHF13): 0.6575; Array Heatmap signal, PHF21A (PHF21A): 0.4576; Array Heatmap signal, PHF23 (PHF23): 0.7743; Array Heatmap signal, PHF2 (PHF2): 0.7659; Array Heatmap signal, PHF8 (PHF8): 0.711; Array Heatmap signal, PHRF1 (RP) (PHRF1 (RP)): 0.4594; Array Heatmap signal, RAG2 (RAG2): 0.5848; Array Heatmap signal, SP140L (SP140L): 0.3363; Array Heatmap signal, TAF3 (TAF3): 0.3972; Array Heatmap signal, TRIM66 (PB) (TRIM66 (PB)): 0.5379
H4 (11-27): H4 11-27	0.4611	0.4866	0.3518	0.6032	0.8335	0.5646	0.7393	0.705	0.5543	0.6025	0.5001	0.4682	0.3644	0.4895	0.4724	0.4231	0.652	0.4786	0.3743	0.5751	Array Heatmap signal, MORC3 (CW) (MORC3 (CW)): 0.3632; Array Heatmap signal, PHF13 (PHF13): 0.6301; Array Heatmap signal, PHF21A (PHF21A): 0.4899; Array Heatmap signal, PHF23 (PHF23): 0.5647; Array Heatmap signal, PHF2 (PHF2): 0.5451; Array Heatmap signal, PHF8 (PHF8): 0.3468; Array Heatmap signal, PHRF1 (RP) (PHRF1 (RP)): 0.4565; Array Heatmap signal, RAG2 (RAG2): 0.2544; Array Heatmap signal, SP140L (SP140L): 0.3427; Array Heatmap signal, TAF3 (TAF3): 0.2827; Array Heatmap signal, TRIM66 (PB) (TRIM66 (PB)): 0.6367
